{
  "source": "paper PMC9093036",
  "about": "“Discovery of METTL3 Small Molecule Inhibitors by Virtual Screening of Natural Products” (Frontiers in Pharmacology, 2022)",
  "molecular_target": "T1, METTL3 (Homo sapiens, UniProt Q86U44)",
  "T1 construct": "METTL3-METTL14 complex (wild type); with METTL14",
  "T1 sequence (Q86U44 2-580)": "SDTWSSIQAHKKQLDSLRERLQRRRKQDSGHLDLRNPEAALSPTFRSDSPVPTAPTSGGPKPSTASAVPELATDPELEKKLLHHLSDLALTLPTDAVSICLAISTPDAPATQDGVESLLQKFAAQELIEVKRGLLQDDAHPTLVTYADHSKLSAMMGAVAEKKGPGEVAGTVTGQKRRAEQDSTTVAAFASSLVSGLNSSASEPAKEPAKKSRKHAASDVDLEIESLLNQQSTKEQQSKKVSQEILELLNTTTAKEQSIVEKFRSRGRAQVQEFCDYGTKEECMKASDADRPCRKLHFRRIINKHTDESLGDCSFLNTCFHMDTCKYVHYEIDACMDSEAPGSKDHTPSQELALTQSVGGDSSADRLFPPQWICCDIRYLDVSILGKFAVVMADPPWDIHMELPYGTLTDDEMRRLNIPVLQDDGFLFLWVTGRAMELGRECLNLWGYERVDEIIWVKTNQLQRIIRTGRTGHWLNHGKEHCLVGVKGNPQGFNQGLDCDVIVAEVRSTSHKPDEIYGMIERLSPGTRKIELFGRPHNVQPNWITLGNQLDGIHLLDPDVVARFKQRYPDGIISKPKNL",
  "T1 sequence (Q9HCE5 whole entry partner)": "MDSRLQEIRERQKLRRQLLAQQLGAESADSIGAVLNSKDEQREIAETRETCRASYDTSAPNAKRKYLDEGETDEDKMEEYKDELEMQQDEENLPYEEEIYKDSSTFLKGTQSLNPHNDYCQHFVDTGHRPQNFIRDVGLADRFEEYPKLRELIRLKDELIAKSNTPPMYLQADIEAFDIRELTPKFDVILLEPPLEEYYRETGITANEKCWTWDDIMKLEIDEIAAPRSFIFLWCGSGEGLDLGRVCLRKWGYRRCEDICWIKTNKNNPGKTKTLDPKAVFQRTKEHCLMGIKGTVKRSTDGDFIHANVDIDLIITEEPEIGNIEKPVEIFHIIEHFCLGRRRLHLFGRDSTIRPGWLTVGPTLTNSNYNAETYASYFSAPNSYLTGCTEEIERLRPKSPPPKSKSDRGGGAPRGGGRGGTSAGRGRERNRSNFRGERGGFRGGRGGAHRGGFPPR",
  "assay": "in vitro methyltransferase assay with omission of components, m6A by LC-MS/MS",
  "assay_type": "biochemical",
  "source_text": "in vitro methyltransferase assay with omission of components, m6A by LC-MS/MS on METTL3 | METTL[…]TL14 (wild type), SAM, and RNA are essential for m^6A formation",
  "data": [
    {"smiles": "C[S+](CC[C@H](N)C(=O)[O-])C[C@H]1O[C@@H](n2cnc3c(N)ncnc32)[C@H](O)[C@@H]1O", "note": "(stereo partly shown) [SAM]", "values": [
      {"measurement": "components essential for m6A formation", "result": "METTL3-METTL14 (wild type), SAM, and RNA are essential for m^6A formation"}
    ]}
  ]
}
